Among the data in patent publication US9388181B2, “Substituted 1,2,3,4-tetrahydropyrido[3,4-E] pyrrolo[1,2-A]pyrimidines as kinase” (Allergan, Inc., priority 2014, dated 2016) are IC50 values, retold here.

One assay deals with VEGFR2 (KDR) (Homo sapiens (Human), UniProt P35968). As to the kind of experiment: VEGFR2 Kinase Assay (biochemical KDR kinase assay, ELISA). Particulars: purified cytoplasmic domain KDR protein, 2.7 μM ATP. As for the experimental part:
Biochemical KDR kinase assays were performed in 96 well microtiter plates that were coated overnight with 75 μg/well of poly-Glu-Tyr (4:1) in 10 mM Phosphate Buffered Saline (PBS), pH 7.4. The coated plates were washed with 2 mls per well PBS+0.05% Tween-20 (PBS-T), blocked by incubation with PBS containing 1% BSA, then washed with 2 mls per well PBS-T prior to starting the reaction. Reactions were carried out in 100 μL reaction volumes containing 2.7 μM ATP in kinase buffer (50 mM Hepes buffer pH 7.4, 20 mM MgCl2, 0.1 mM MnCl2 and 0.2 mM Na3VO4). Test compounds were reconstituted in 100% DMSO and added to the reaction to give a final DMSO concentration of 5%. Reactions were initiated by the addition 20 ul per well of kinase buffer containing 200-300 ng purified cytoplasmic domain KDR protein (BPS Bioscience, San Diego, Calif.). Following a 15 minute incubation at 30° C., the reactions were washed 2 mls per well PBS-T. 100 μl of a monoclonal anti-phosphotyrosine antibody-peroxidase conjugate diluted 1:10,000 in PBS-T was added to the wells for 30 minutes. Following a 2 mis per well wash with PBS-Tween-20, 100 μl of O-Phenylenediamine Dihydrochloride in phosphate-citrate buffer, containing urea hydrogen peroxide, was added to the wells for 7-10 minutes as a colorimetric substrate for the peroxidase. The reaction was terminated by the addition of 100 μl of 2.5N H2SO4 to each well and read using a microplate ELISA reader set at 492 nm. IC50 values for compound inhibition were calculated directly from graphs of optical density (arbitrary units) versus compound concentration following subtraction of blank values.
In general terms: ELISA stands for enzyme-linked immunosorbent assay.

The target in assay [1] is T1, PDGFRβ (Homo sapiens (Human), UniProt P09619). The experiment in a line: PDGFRβ Kinase Assay (biochemical, ELISA). Particulars: purified cytoplasmic domain PDGFR-b protein, 36 μM ATP. The method, then:
Biochemical PDGFRβ kinase assays were performed in 96 well microtiter plates that were coated overnight with 75 μg of poly-Glu-Tyr (4:1) in 10 mM Phosphate Buffered Saline (PBS), pH 7.4. The coated plates were washed with 2 mls per well PBS+0.05% Tween-20 (PBS-T), blocked by incubation with PBS containing 1% BSA, then washed with 2 mls per well PBS-T prior to starting the reaction. Reactions were carried out in 100 μL reaction volumes containing 36 μM ATP in kinase buffer (50 mM Hepes buffer pH 7.4, 20 mM MgCl2, 0.1 mM MnCl2 and 0.2 mM Na3VO4). Test compounds were reconstituted in 100% DMSO and added to the reaction to give a final DMSO concentration of 5%. Reactions were initiated by the addition 20 ul per well of kinase buffer containing 200-300 ng purified cytoplasmic domain PDGFR-b protein (Millipore). Following a 60 minute incubation at 30° C., the reactions were washed 2 mls per well PBS-T. 100 μl of a monoclonal anti-phosphotyrosine antibody-peroxidase conjugate diluted 1:10,000 in PBS-T was added to the wells for 30 minutes. Following a 2 mis per well wash with PBS-Tween-20, 100 μl of 0-Phenylenediamine Dihydrochloride in phosphate-citrate buffer, containing urea hydrogen peroxide, was added to the wells for 7-10 minutes as a colorimetric substrate for the peroxidase. The reaction was terminated by the addition of 100 μl of 2.5N H2SO4 to each well and read using a microplate ELISA reader set at 492 nm. IC50 values for compound inhibition were calculated directly from graphs of optical density (arbitrary units) versus compound concentration following subtraction of blank values.
Target sequence in this assay (P09619 554-1106): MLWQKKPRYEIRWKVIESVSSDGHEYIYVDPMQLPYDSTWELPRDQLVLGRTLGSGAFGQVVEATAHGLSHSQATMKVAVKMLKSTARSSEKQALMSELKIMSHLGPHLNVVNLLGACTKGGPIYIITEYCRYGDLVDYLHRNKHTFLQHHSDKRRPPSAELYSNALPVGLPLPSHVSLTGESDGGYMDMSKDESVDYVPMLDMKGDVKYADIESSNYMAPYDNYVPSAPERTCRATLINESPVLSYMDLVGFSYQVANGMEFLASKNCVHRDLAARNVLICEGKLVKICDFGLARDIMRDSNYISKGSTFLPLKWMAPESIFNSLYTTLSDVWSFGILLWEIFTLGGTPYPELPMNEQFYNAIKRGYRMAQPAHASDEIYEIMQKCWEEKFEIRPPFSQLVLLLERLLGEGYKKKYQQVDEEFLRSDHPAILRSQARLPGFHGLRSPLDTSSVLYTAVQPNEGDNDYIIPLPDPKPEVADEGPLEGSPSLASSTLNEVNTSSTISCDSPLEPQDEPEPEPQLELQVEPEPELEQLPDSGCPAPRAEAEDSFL

The next assay has as its target VEGFR2 (Homo sapiens (Human), UniProt P35968). The experiment in a line: VEGFR2 Cellular Assay (FLIPR, VEGF induced intracellular calcium in HUVEC). The format is cell-based. The settings on record: VEGF165 stimulation (10 ng/mL). The method, then: VEGFR2 Cellular Assay Automated FLIPR (Fluorometric Imaging Plate Reader) technology was used to screen for inhibitors of VEGF induced increases in intracellular calcium levels in fluorescent dye loaded endothelial cells. HUVEC (human umbilical vein endothelial cells) (Clonetics) were seeded in 384-well fibronectin coated black-walled plates overnight @ 37° C./5% CO2. Cells were loaded with calcium indicator Fluo-4 for 45 minutes at 37° C. Cells were washed 2 times (Elx405, Biotek Instruments) to remove extracellular dye. For screening, cells were pre-incubated with test agents for 30 minutes, at a single concentration (10 uM) or at concentrations ranging from 0.0001 to 10.0 uM followed by VEGF165 stimulation (10 ng/mL). Changes in fluorescence at 516 nm were measured simultaneously in all 384 wells using a cooled CCD camera. Data were generated by determining max-min fluorescence levels for unstimulated, stimulated, and drug treated samples. IC50 values for test compounds were calculated from inhibition of VEGF stimulated responses in the absence of inhibitor.
(In general: Calcium flux is commonly read through the fluorescence of an indicator in the cells.)

The target in assay [2] is T1, PDGFRβ. As to the kind of experiment: PDGFRβ Cellular Assay (FLIPR, PDGF-induced intracellular calcium in NHDF-Ad). The class given is cell-based. Particulars: PDGF-BB stimulation (30 ng/mL). The method, then:
NHDF-Ad (Normal Human Dermal Fibroblasts, Adult; Lonza) were seeded in 384-well fibronectin coated black-walled plates overnight @ 37° C./5% CO2. Cells were loaded with calcium indicator Fluo-4 for 45 minutes at 37° C. Cells were washed 2 times (Elx405, Biotek Instruments) to remove extracellular dye. For screening, cells were pre-incubated with test agents for 30 minutes, at a single concentration (10 uM) or at concentrations ranging from 0.0001 to 10.0 uM followed by PDGF-BB stimulation (30 ng/mL). Changes in fluorescence at 516 nm were measured simultaneously in all 384 wells using a cooled CCD camera. Data were generated by determining max-min fluorescence levels for unstimulated, stimulated, and drug treated samples. IC50 values for test compounds were calculated from % inhibition of PDGF-BB stimulated responses in the absence of inhibitor.
Target sequence in this assay (P09619 33-1106): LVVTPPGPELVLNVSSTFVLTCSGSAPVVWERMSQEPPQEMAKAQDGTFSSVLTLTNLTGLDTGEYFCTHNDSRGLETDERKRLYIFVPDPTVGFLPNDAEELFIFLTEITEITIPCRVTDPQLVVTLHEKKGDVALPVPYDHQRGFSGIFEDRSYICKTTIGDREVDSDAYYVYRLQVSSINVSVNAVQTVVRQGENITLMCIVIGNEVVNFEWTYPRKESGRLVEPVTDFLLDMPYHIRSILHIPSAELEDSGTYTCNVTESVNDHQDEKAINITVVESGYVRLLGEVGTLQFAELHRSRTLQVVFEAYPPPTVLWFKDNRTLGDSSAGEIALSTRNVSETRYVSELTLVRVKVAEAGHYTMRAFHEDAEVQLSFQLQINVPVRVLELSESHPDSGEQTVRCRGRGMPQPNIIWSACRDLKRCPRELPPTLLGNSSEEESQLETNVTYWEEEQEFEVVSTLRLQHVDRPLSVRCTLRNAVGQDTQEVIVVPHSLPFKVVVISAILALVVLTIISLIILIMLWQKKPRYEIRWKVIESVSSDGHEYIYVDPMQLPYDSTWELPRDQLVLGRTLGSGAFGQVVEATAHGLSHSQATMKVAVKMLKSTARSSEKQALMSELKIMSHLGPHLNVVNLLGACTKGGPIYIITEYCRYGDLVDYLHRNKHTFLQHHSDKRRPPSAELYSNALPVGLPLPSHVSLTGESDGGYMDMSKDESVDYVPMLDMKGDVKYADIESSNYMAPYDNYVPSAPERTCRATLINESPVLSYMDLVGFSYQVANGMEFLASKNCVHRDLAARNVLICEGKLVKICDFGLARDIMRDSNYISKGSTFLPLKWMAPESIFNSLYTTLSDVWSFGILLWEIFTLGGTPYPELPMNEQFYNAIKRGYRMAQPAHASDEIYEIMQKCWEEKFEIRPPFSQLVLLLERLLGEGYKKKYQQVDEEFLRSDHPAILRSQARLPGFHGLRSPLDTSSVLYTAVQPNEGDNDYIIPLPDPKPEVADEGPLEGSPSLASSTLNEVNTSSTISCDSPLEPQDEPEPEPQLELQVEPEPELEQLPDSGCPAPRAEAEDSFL

Some results are limits rather than exact numbers.

Chain of VEGFR2 (KDR) (P35968 786-1356): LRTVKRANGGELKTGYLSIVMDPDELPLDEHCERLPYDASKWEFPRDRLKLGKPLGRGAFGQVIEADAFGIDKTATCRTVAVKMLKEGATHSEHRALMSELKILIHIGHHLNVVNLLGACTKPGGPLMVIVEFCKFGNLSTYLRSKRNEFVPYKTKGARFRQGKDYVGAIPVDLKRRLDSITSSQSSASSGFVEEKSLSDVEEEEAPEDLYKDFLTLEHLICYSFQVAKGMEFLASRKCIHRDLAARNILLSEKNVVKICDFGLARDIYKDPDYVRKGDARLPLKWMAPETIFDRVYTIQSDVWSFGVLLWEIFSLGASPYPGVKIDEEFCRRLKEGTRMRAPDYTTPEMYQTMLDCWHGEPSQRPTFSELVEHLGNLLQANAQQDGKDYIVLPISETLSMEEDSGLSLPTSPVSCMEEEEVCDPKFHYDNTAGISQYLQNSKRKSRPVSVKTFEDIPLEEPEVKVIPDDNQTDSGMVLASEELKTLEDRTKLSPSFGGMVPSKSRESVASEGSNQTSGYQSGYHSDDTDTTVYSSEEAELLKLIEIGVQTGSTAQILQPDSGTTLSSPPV
Chain of VEGFR2 (P35968 20-1356): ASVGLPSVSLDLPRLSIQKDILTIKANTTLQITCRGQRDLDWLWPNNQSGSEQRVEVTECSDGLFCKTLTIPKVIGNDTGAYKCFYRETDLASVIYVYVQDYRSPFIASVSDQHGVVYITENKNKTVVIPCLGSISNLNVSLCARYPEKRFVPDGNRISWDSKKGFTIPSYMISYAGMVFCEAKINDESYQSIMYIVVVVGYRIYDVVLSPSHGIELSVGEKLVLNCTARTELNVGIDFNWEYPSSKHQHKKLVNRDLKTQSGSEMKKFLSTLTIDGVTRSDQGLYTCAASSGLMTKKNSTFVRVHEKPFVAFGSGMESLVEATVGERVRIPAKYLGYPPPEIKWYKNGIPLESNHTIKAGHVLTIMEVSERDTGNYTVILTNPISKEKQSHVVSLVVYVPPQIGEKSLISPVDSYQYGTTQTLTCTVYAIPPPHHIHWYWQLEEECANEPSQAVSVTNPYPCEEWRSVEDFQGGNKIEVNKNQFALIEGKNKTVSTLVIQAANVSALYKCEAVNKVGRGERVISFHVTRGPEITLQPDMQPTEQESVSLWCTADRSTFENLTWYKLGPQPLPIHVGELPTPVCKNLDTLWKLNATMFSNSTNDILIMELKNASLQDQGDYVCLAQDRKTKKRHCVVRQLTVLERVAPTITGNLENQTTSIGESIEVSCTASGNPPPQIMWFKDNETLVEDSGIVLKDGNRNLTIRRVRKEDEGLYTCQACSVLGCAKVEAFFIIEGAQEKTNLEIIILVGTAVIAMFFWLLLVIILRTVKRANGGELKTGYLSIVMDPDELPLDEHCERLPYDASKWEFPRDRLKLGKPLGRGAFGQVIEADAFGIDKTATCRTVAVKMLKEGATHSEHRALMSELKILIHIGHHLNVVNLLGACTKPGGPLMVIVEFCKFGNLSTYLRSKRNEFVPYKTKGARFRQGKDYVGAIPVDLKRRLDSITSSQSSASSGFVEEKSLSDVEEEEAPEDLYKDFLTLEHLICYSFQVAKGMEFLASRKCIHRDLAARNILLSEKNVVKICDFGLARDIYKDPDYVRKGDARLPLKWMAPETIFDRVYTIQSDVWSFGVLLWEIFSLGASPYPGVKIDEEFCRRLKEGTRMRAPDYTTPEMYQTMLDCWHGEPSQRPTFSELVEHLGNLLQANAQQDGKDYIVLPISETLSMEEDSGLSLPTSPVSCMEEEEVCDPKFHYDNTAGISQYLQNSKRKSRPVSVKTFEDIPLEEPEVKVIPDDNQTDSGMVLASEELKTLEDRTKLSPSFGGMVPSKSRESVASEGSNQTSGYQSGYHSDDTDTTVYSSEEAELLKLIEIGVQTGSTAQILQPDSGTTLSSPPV

The IC50 is the midpoint of a concentration-inhibition curve. Consider `Cc1cccc(NC(=O)Nc2cccc(N3CCc4c(cnc5ccnn45)C3)c2)c1` [Example 12, 1-[3-(8,9-dihydropyrazolo[1,5-a]pyrido[3,4-e]pyrimidin-7(6H)-yl)phenyl]-3-(3-methylphenyl)urea], for which the IC50 at VEGFR2 (KDR) stood at 27 nM; at PDGFRβ [1] it was 32 nM.
Compound `CC(C)(C)OC(=O)Nc1cccc(N2CCc3c(cnc4ccnn34)C2)c1` [Example 8, tert-Butyl (3-(8,9-dihydropyrazolo[1,5-a]pyrido[3,4-e]pyrimidin-7(6H)-yl)phenyl)carbamate] showed an IC50 on VEGFR2 (KDR) of more than 10000 nM.
For the compound `O=C(Nc1cccc(N2CCc3c(cnc4ccnn34)C2)c1)c1ccccc1` [Example 10, N-[3-(8,9-dihydropyrazolo[1,5-a]pyrido[3,4-e]pyrimidin-7(6H)-yl)phenyl]benzamide], the IC50 at VEGFR2 (KDR) is 101 nM; at PDGFRβ [1] it was 202 nM.
`CC(C)c1cccc(NC(=O)c2cccc(N3Cc4cnc5ccnn5c4C3)c2)c1` [Example 7, 3-(6,8-dihydro-7H-pyrazolo[1,5-a]pyrrolo[3,4-e]pyrimidin-7-yl)-N-(3-isopropylphenyl)benzamide] gave an IC50 against VEGFR2 (KDR) of more than 10000 nM.
For the compound `O=C(Nc1cccc(C(F)(F)F)c1)c1cccc(N2CCc3c(cnc4ccnn34)C2)c1` [Example 4, 3-(8,9-dihydropyrazolo[1,5-a]pyrido[3,4-e]pyrimidin-7(6H)-yl)-N-[3-(trifluoromethyl)phenyl] benzamide], the IC50 on VEGFR2 (KDR) is 6 nM; at VEGFR2, 70 nM; at PDGFRβ [1], 27 nM; at PDGFRβ [2] it was 192 nM.
`CC(C)c1cccc(NC(=O)c2cccc(N3CCc4c(cnc5ccnn45)C3)c2)c1` [Example 3, 3-(8,9-dihydropyrazolo[1,5-a]pyrido[3,4-e]pyrimidin-7(6H)-yl)-N-(3-isopropylphenyl)benzamide]: the IC50 at VEGFR2 (KDR) amounted to 8 nM; at VEGFR2, 26 nM; against PDGFRβ [1] it was 20 nM.
For the compound `O=C(Nc1cccc(N2CCc3c(cnc4ccnn34)C2)c1)c1cccc(C(F)(F)F)c1` [Example 11, N-[3-(8,9-dihydropyrazolo[1,5-a]pyrido[3,4-e]pyrimidin-7(6H)-yl)phenyl]-3-(trifluoromethyl)benzamid], the half-maximal inhibitory concentration (IC50) is 6 nM against VEGFR2 (KDR) and 21 nM on PDGFRβ [1].
